{"source": "patent US8598161B2", "about": "“Compounds for the reduction of beta-amyloid production” (Bristol-Myers Squibb Company, priority 2011, dated 2013)", "data": [{"test_system": "Aβ42 production in H4 APP751 SWE clone 8.20 cells", "experiment": "Cellular assay for inhibition of Aβ1-42 production", "assay_type": "cell-based", "conditions": "H4 cells stably transfected with APP751 Swedish mutation (clone 8.20), 19 h incubation", "method": "H4 cells stably transfected with APP751 containing the Swedish mutation (H4 APP751 SWE clone 8.20, developed at BMS) were maintained in log phase through twice weekly passage at a 1:20 split. […] Following incubation for 19 h in 5% CO2 at 37° C., plates were briefly centrifuged (1000 rpm, 5 min). A 10 μl aliquot from each well was transferred to a second assay plate (Costar 3709) for Aβ40 measurements. Antibody cocktails were freshly prepared by dilution into 40 mM Tris-HCl (pH 7.4) with 0.2% BSA and added to assay plates. For Aβ42 measurements, antibodies specific for the Aβ42 neoepitope (565, developed at BMS; conjugated to the Wallac reagent (Perkin Elmer)) and the N-terminal sequence of Aβ peptide (26D6, developed at SIBIA; conjugated to APC (Perkin Elmer)) were mixed and 20 μl of the mixture was added to each well of the incubated cell plate yielding a final concentration of 0.8 ng/well 565 and 75 ng/well 26D6. […] Assay plates containing antibodies were sealed with aluminum foil and incubated overnight at 4° C. Signal was determined using a Viewlux counter (Perkin Elmer) and IC50 values determined using curve fitting in CurveMaster (Excel Fit based).", "units": {"IC50": "nM"}, "values": [{"smiles": "CC#Cc1cncc(-c2cc([C@@]34N=C(N)SC[C@@H]3CCO4)c(F)cc2F)c1", "note": "(racemic) [Example 8, (±)-(4aR,7aR)-7a-(2,4-difluoro-5-(5-(prop-1-ynyl)pyridin-3-yl)phenyl)-4a,5,6,7a-tetrahydro-4H-furo[2,3-d][1,3]thiazin-2-amine]", "IC50": 924}, {"smiles": "NC1=N[C@@]2(c3cc(NC(=O)c4ccccn4)ccc3F)OCC[C@H]2CS1", "note": "(racemic) [Example 5, (±)-N-(3-((4aR,7aR)-2-amino-4a,5,6,7a-tetrahydro-4H-furo[2,3-d][1,3]thiazin-7a-yl)-4-fluorophenyl)picolinamide]", "IC50": 856}, {"smiles": "NC1=N[C@@]2(c3cc(-c4cncnc4)c(F)cc3F)OCCC[C@H]2CS1", "note": "[Example 11, (4aR,8aR)-8a-(2,4-difluoro-5-(pyrimidin-5-yl)phenyl)-4,4a,5,6,7,8a-hexahydropyrano[2,3-d][1,3]thiazin-2-amine]", "IC50": 995}, {"smiles": "N#Cc1ccc(C(=O)Nc2ccc(F)c([C@@]34N=C(N)SC[C@@H]3CCO4)c2)nc1", "note": "[Example 3, N-(3-((4aR,7aR)-2-amino-4a,5,6,7a-tetrahydro-4H-furo[2,3-d][1,3]thiazin-7a-yl)-4-fluorophenyl)-5-cyanopicolinamide]", "IC50": 72}, {"smiles": "NC1=N[C@@]2(c3cc(NC(=O)c4ccc(F)cn4)ccc3F)OCC[C@H]2CS1", "note": "(racemic) [Example 4, (±)-N-(3-((4aR,7aR)-2-amino-4a,5,6,7a-tetrahydro-4H-furo[2,3-d][1,3]thiazin-7a-yl)-4-fluorophenyl)-5-fluoropicolinamide]", "IC50": 465}, {"smiles": "NC1=N[C@@]2(c3cc(NC(=O)c4ccc(Cl)cn4)ccc3F)OCC[C@H]2CS1", "note": "[Example 2, N-(3-((4aR,7aR)-2-amino-4a,5,6,7a-tetrahydro-4H-furo[2,3-d][1,3]thiazin-7a-yl)-4-fluorophenyl)-5-chloropicolinamide]", "IC50": 24}]}]}
